{"source": "patent US10000577B2", "about": "“Treatment of otitis media” (Research Institute at Nationwide Children's Hospital, priority 2015, dated 2018)", "test_system": "NHBE cells", "assay": "Inhibition of Arp2/3 - normal human bronchial epithelial cell (NHBE) infection model with GFP-expressing NTHI", "format": "cell-based", "conditions": "200 μM CK-636, 24 or 48 hours", "method": "Inhibition of Arp2/3—Normal human bronchial epithelial cell (NHBE) infection model: NHBE cells (Lonza, Walkersville, Md.) were seeded into 24-well plates containing sterile coverslips and grown in Bronchial Epithelial Cell Growth Medium (BEGM; Lonza, Walkersville, Md.) at 37° C. in a 5% CO2 atmosphere to near confluency. […] The next morning the colonies were re-suspended in brain heart infusion broth supplemented with 2 μg/ml heme and 2 μg/ml β-NAD (sBHI) and grown at 37° C. with shaking at 180 rpm until the cells were in mid-log phase (˜5 generations). Prior to infection, the BEGM was removed from the NHBE cells and replaced with BEGM that contained either 200 μM CK-636 (Sigma-Aldrich, St. Louis, Mo.), an inhibitor of Arp2/3 function, or 0.2% DMSO, the vehicle for CK-636. Strain 86-028NP(pGM1.1) was then added to the NHBE cells at a multiplicity of infection of 50 bacteria to one NHBE cell and incubated at 37° C. in a 5% CO2 atmosphere for one hour. The NHBE cells were then washed twice with DPBS before being placed back in BEGM that contained either 200 μM CK-636 or 0.2% DMSO. Cells were incubated at 37° C. in a 5% CO2 atmosphere for 24 or 48 hours. At each time point, cells were stained with WGA-Alexa Fluor 594, fixed in 4% paraformaldehyde (Electron Microscopy Sciences, Hatfield, Pa.) in DPBS, permeabilized with 0.1% Triton X-100 then stained with phalloidin-Alexa Fluor 350. […]", "note": "Entries after “also recorded” stand apart in the source; their conditions may differ."}
{"molecule": "Cc1[nH]c2ccccc2c1CCNC(=O)c1cccs1", "note": "[CK-636]", "values": [{"measurement": "NTHI invasion / bacterial uptake into epithelial cells (fluorescent microscopy)", "setting": "NTHI strain 86-028NP(pGM1.1), MOI 50, versus 0.2% DMSO vehicle", "result": "reduced NTHI invasion into epithelial cells; also recorded: increase in the number of extracellular bacteria indicating that bacterial uptake was reduced"}, {"measurement": "actin structure of NHBE cells (phalloidin staining, fluorescent microscopy)", "setting": "NTHI-infected NHBE cells", "result": "gross morphological changes in actin structure"}]}
